In patent publication US20240391940A1, “FUSED RING-CONTAINING COMPOUND, APPLICATION THEREOF, AND COMPOSITION CONTAINING SAME” (GenEros Biopharma Ltd., priority 2020, published 2024):

Key:
female BALB/c mice = experiment: Toxicity, multiple administrations for 14 days in mice; type: in vivo; parameters: Changes in body weight of the mice in the toxicity test (group mean) / Changes in body weight of the mice in the toxicity test: unit not given here
Description: • Part I: Single administration. A total of 6 mice were used. They were randomly divided into 2 groups: the vehicle control and GEN1-284s (1000 mg/kg), dosed once by oral gavage and observed for 6 days, and changes in body weight and activities were recorded. • Part II: Multiple administrations. This experiment used a total of 6 mice. They were divided into two groups of 3: a GEN1-284s-1000 mg/kg group and a GEN1-284s-300 mg/kg group, and were intragastrically given GEN1-284s for 14 consecutive days at 200 μL each. The state and survival of the mice were observed every day, and their body weights were recorded. Two mice died 2 h after GEN1-284s-1000 mg/kg administration. The dose was changed to 600 mg/kg, and the experiment was continued.
This experiment used a total of 6 mice. They were divided into two groups of 3: a GEN1-284s-1000 mg/kg group and a GEN1-284s-300 mg/kg group, and were intragastrically given GEN1-284s for 14 consecutive days at 200 μL each. The state and survival of the mice were observed every day, and their body weights were recorded. Two mice died 2 h after GEN1-284s-1000 mg/kg administration. The dose was changed to 600 mg/kg, and the experiment was continued.
Each mouse was intragastrically administered GEN1-284s for 14 consecutive days in a volume of 200 μL/20 g. The state and survival of the mice were observed every day, and their body weights were recorded. Two mice died 2 h after GEN1-284s-1000 mg/kg administration. The dose was changed to 600 mg/kg, and the experiment was continued.
Changes in body weight and survival of the mice were observed during 6 days after the single administration, and changes in body weight and the survival of the mice were observed during 14 consecutive days of high-dose GEN1-284s administration.

[1] = test system: STAT5 Y694 phosphorylation; experiment: HTRF experiment: STAT5 Y694 phosphorylation in Hela cells; type: cell-based, Human; settings: for Inhibition rate @10 μM: 10 μM compound, 2 h pretreatment, interferon stimulation 30 min
Description: A multifunctional microplate reader (TECAN; […] F PLEX); 96-well cell culture plates (Bioyong), HTRF 384-well low volume plates (Cisbio; Cat #66PL384025); Human interferon 0 (IFN-0) (GenScript; Cat #P01574), STAT5 phospho-Y694 kits (Cisbio; Cat #64AT5PEG).
Hela cells (American Type Culture Collection (ATCC), CCL-2) were cultured in a 96-well plate with DMEM containing 5% fetal bovine serum at a density of 3×10^4 cells/well. The cells were incubated overnight in a 37° C., 5% carbon dioxide humidified incubator. The next day, the original DMEM in the 96-well plate was blotted, and equal volumes of medium containing different concentrations of compounds (stock solutions of compounds prepared with dimethyl sulfoxide were diluted to desired concentrations in medium) were added for 2 h of pretreatment. The plate was left to stand in a 37° C. incubator. Human interferon 0 was then added to a final concentration of 10 nM for stimulation. The plate was gently shaken so the contents were well mixed, and the plate was then left to stand in a 37° C. incubator for 30 min.
The medium was removed, and the plate was washed once with an appropriate volume of PBS and then blotted dry. Then 1×lysis buffer was added at 40 μL/well, and the plate was left to stand at room temperature for 30 min (preparation of 1 mL of 1× lysis buffer: mixing well 740 μL of ddH2O with 250 μL of 4× lysis buffer and […]). After 30 min, the cells were repeatedly pipetted until the lysis buffer was not viscous (bubbles were avoided) so that sufficient lysis was achieved.
In an HTRF 384-well low volume plate, 4 μL of an antibody premix (containing two antibodies: Cryptate and d2: the two antibodies were each 20-fold diluted with detection buffer and were then mixed in equal volume to form the antibody premix) and 16 μL of the cell lysate were added to each well. The plate was sealed with a sealing membrane and then incubated overnight at room temperature in a dark place.
After the overnight incubation, signals at 665 nm and 620 nm were detected separately on a multifunctional microplate reader. The calculation formula for the STAT5 Y694 phosphorylation assay is: Ratio=[(signal 665 nm)/(signal 620 nm)]×10^4. A dimethyl sulfoxide-only treatment group was set as a negative control (RatioNegative), and an interferon 0 stimulation group without compound addition was set as a positive control (RatioPositive). The inhibition rates of different samples against STAT5 Y694 phosphorylation were normalized: inhibition rate=[1−(RatioExperiment−RatioNegative)/(RatioPositive−RatioNegative)]×100.

Row | Structure (SMILES) | Inhibition rate @10 μM [1] [%] | IC50 [1] [µM] | further results
1 | O=C(Cc1ccc2ncccc2c1)N1CCC(n2c(=O)n(COP(=O)([O-])[O-])c3cccc(C(F)(F)F)c32)CC1.[Na+].[Na+] [Compound 284s] |  |  | Changes in body weight of the mice in the toxicity test (group mean) (female BALB/c mice; 300 mg/kg P.O daily, Day 1): 16.97; Changes in body weight of the mice in the toxicity test (group mean) (female BALB/c mice; 300 mg/kg P.O daily, Day 2): 16.93; Changes in body weight of the mice in the toxicity test (group mean) (female BALB/c mice; 300 mg/kg P.O daily, Day 3): 16.87; Changes in body weight of the mice in the toxicity test (group mean) (female BALB/c mice; 300 mg/kg P.O daily, Day 4): 17.17; Changes in body weight of the mice in the toxicity test (group mean) (female BALB/c mice; 300 mg/kg P.O daily, Day 5): 17.17; Changes in body weight of the mice in the toxicity test (group mean) (female BALB/c mice; 300 mg/kg P.O daily, Day 6): 17.23; Changes in body weight of the mice in the toxicity test (group mean) (female BALB/c mice; 300 mg/kg P.O daily, Day 8): 17.47; Changes in body weight of the mice in the toxicity test (group mean) (female BALB/c mice; 300 mg/kg P.O daily, Day 9): 17.17; Changes in body weight of the mice in the toxicity test (group mean) (female BALB/c mice; 300 mg/kg P.O daily, Day 10): 17.1; Changes in body weight of the mice in the toxicity test (group mean) (female BALB/c mice; 300 mg/kg P.O daily, Day 11): 17.3; Changes in body weight of the mice in the toxicity test (group mean) (female BALB/c mice; 300 mg/kg P.O daily, Day 12): 17.23; Changes in body weight of the mice in the toxicity test (group mean) (female BALB/c mice; 300 mg/kg P.O daily, Day 13): 17.47; Changes in body weight of the mice in the toxicity test (group mean) (female BALB/c mice; 300 mg/kg P.O daily, Day 14): 17.47; Changes in body weight of the mice in the toxicity test (group mean) (female BALB/c mice; 600 mg/kg group (1000 mg/kg, changed to 600 mg/kg on day 2) P.O daily, Day 1): 17.37; Changes in body weight of the mice in the toxicity test (female BALB/c mice; 600 mg/kg group (1000 mg/kg, changed to 600 mg/kg on day 2) P.O daily, Day 2): 16.9; Changes in body weight of the mice in the toxicity test (female BALB/c mice; 600 mg/kg group (1000 mg/kg, changed to 600 mg/kg on day 2) P.O daily, Day 3): 17.3; Changes in body weight of the mice in the toxicity test (female BALB/c mice; 600 mg/kg group (1000 mg/kg, changed to 600 mg/kg on day 2) P.O daily, Day 4): 17.3
2 | O=C(Cc1ccc2[nH]ccc2c1)N1CCC(n2c(=O)[nH]c3ccccc32)CC1 [GEN1-077, 3-[1-[2-(1H-Indol-5-yl)acetyl]-4-piperidinyl]-1H-benzimidazol-2-one] | 34.25 |  | 
3 | CN(C)c1ccc(CC(=O)N2CCC(n3c(=O)[nH]c4cccc(C(F)(F)F)c43)CC2)cc1 [GEN1-118, 1-(1-(2-(4-(Dimethylamino)phenyl)acetyl)piperidin-4-yl)-7-(trifluoromethyl)-1,3-dihydro-2H-benzo[d]imidazol-2-one] | 27.57 |  | 
4 | O=C(Cc1ccc2nccnc2c1)N1CCC(n2c(=O)[nH]c3cccc(C(F)(F)F)c32)CC1 [GEN1-140, 1-(1-(2-(Quinoxalin-6-yl)acetyl)piperidin-4-yl)-7-(trifluoromethyl)-1,3-dihydro-2H-benzo[d]imidazol-2-one] | 53.79 |  | 
5 | O=C(Cc1c[nH]c2ccccc12)N1CCC(n2c(=O)[nH]c3cccc(C(F)(F)F)c32)CC1 [GEN1-169, reference compound] | 13.47 |  | 
6 | O=C(Cc1ccc2ncccc2c1)N1CCC(n2c(=O)n(COP(=O)(O)O)c3cccc(C(F)(F)F)c32)CC1 [GEN1-284, (2-Oxo-3-(1-(2-(quinolin-6-yl)acetyl)piperidin-4-yl)-4-(trifluoromethyl)-2,3-dihydro-1H-benzo[d]imidazol-1-yl)methyl dihydrogen phosphate] | 80.21 | 3.9 | 
7 | O=C(Cc1ccc2sccc2c1)N1CCC(n2c(=O)[nH]c3cccc(C(F)(F)F)c32)CC1 [GEN1-298, 1-(1-(2-(Benzo[b]thiophen-5-yl)acetyl)piperidin-4-yl)-7-(trifluoromethyl)-1,3-dihydro-2H-benzo[d]imidazol-2-one] | 51.98 |  | 
8 | Cc1ccc2cc(CC(=O)N3CCC(n4c(=O)[nH]c5cccc(C(F)(F)F)c54)CC3)ccc2n1 [GEN1-300] | 72.83 | 7.6 | 
9 | O=C(Cc1ccc2nccc(Cl)c2c1)N1CCC(n2c(=O)[nH]c3cccc(C(F)(F)F)c32)CC1 [GEN1-301, 1-(1-(2-(4-Chloroquinolin-6-yl)acetyl)piperidin-4-yl)-7-(trifluoromethyl)-1,3-dihydro-2H-benzo[d]imidazol-2-one] | 80.70 | 8.8 | 
10 | O=C(Cc1ccc2nc(Cl)ccc2c1)N1CCC(n2c(=O)[nH]c3cccc(C(F)(F)F)c32)CC1 [GEN1-302, 1-(1-(2-(2-Chloroquinolin-6-yl)acetyl)piperidin-4-yl)-7-(trifluoromethyl)-1,3-dihydro-2H-benzo[d]imidazol-2-one] | 80.37 | 7 | 
11 | Cc1cc(CC(=O)N2CCC(n3c(=O)[nH]c4cccc(C(F)(F)F)c43)CC2)cc2cccnc12 [GEN1-303, 1-(1-(2-(8-Methylquinolin-6-yl)acetyl)piperidin-4-yl)-7-(trifluoromethyl)-1,3-dihydro-2H-benzo[d]imidazol-2-one] | 91.91 | 5.5 | 
12 | N#Cc1ccnc2ccc(CC(=O)N3CCC(n4c(=O)[nH]c5cccc(C(F)(F)F)c54)CC3)cc12 [GEN1-304, 6-(2-Oxo-2-(4-(2-oxo-7-(trifluoromethyl)-2,3-dihydro-1H-benzo[d]imidazol-1-yl)piperidin-1-yl)ethyl)quinoline-4-carbonitrile] | 40.76 |  | 
13 | COc1ccc2cc(CC(=O)N3CCC(n4c(=O)[nH]c5cccc(C(F)(F)F)c54)CC3)ccc2n1 [GEN1-305] | 63.05 |  | 
14 | O=C(Cc1ccc2ncccc2c1Cl)N1CCC(n2c(=O)[nH]c3cccc(C(F)(F)F)c32)CC1 [GEN1-306, 1-(1-(2-(5-Chloroquinolin-6-yl)acetyl)piperidin-4-yl)-7-(trifluoromethyl)-1,3-dihydro-2H-benzo[d]imidazol-2-one] | 95.64 |  | 
15 | O=C(Cc1ccc2ncc(C(F)(F)F)cc2c1)N1CCC(n2c(=O)[nH]c3cccc(C(F)(F)F)c32)CC1 [GEN1-312] | 55.50 |  | 
